± gives the expanded uncertainty stated by the source.
Legend:
[1] = xn = mol fraction of the nth substance listed; details: 101.3 kPa, Liquid
[2] = excess molar enthalpy (molar enthalpy of mixing); xn = mol fraction of the nth substance listed; details: 101.3 kPa, Liquid, Calvet calorimetry

Which results are given for `CCOC=O` [ethyl methanoate] + CC(C)(C)O?
excess molar volume ([1]; 303.15 K, x1 = 0.0451): 1.65e-06 ± 9e-08 m3/mol; excess molar volume ([1]; 303.15 K, x1 = 0.0901): 3.35e-06 ± 9e-08 m3/mol; excess molar volume ([1]; 303.15 K, x1 = 0.1537): 5.06e-06 ± 9e-08 m3/mol; excess molar volume ([1]; 303.15 K, x1 = 0.1973): 6.07e-06 ± 1e-07 m3/mol; excess molar volume ([1]; 303.15 K, x1 = 0.2481): 7.02e-06 ± 1e-07 m3/mol; excess molar volume ([1]; 303.15 K, x1 = 0.2631): 7.32e-06 ± 1e-07 m3/mol; excess molar volume ([1]; 303.15 K, x1 = 0.3042): 7.9e-06 ± 1.1e-07 m3/mol; excess molar volume ([1]; 303.15 K, x1 = 0.3255): 8.1e-06 ± 1.1e-07 m3/mol; excess molar volume ([1]; 303.15 K, x1 = 0.3448): 8.3e-06 ± 1.1e-07 m3/mol; excess molar volume ([1]; 303.15 K, x1 = 0.3957): 8.6e-06 ± 1.1e-07 m3/mol; excess molar volume ([1]; 303.15 K, x1 = 0.4411): 8.73e-06 ± 1.1e-07 m3/mol; excess molar volume ([1]; 303.15 K, x1 = 0.4445): 8.75e-06 ± 1.1e-07 m3/mol; excess molar volume ([1]; 303.15 K, x1 = 0.4964): 8.79e-06 ± 1.1e-07 m3/mol; excess molar volume ([1]; 303.15 K, x1 = 0.5013): 8.8e-06 ± 1.1e-07 m3/mol; excess molar volume ([1]; 303.15 K, x1 = 0.5084): 8.78e-06 ± 1.1e-07 m3/mol; excess molar volume ([1]; 303.15 K, x1 = 0.5344): 8.7e-06 ± 1.1e-07 m3/mol; excess molar volume ([1]; 303.15 K, x1 = 0.5515): 8.64e-06 ± 1.1e-07 m3/mol; excess molar volume ([1]; 303.15 K, x1 = 0.5677): 8.58e-06 ± 1.1e-07 m3/mol; excess molar volume ([1]; 303.15 K, x1 = 0.5954): 8.35e-06 ± 1.1e-07 m3/mol; excess molar volume ([1]; 303.15 K, x1 = 0.6467): 7.94e-06 ± 1.1e-07 m3/mol; excess molar volume ([1]; 303.15 K, x1 = 0.6956): 7.42e-06 ± 1e-07 m3/mol; excess molar volume ([1]; 303.15 K, x1 = 0.7432): 6.59e-06 ± 1e-07 m3/mol; excess molar volume ([1]; 303.15 K, x1 = 0.8016): 5.54e-06 ± 9e-08 m3/mol; excess molar volume ([1]; 303.15 K, x1 = 0.8477): 4.63e-06 ± 9e-08 m3/mol; excess molar volume ([1]; 303.15 K, x1 = 0.9067): 3.28e-06 ± 8e-08 m3/mol; excess molar volume ([1]; 303.15 K, x1 = 0.9465): 2.17e-06 ± 8e-08 m3/mol; excess molar volume ([1]; 318.15 K, x1 = 0.1022): 4.09e-06 ± 9e-08 m3/mol; excess molar volume ([1]; 318.15 K, x1 = 0.1289): 4.86e-06 ± 9e-08 m3/mol; excess molar volume ([1]; 318.15 K, x1 = 0.232): 7.07e-06 ± 1e-07 m3/mol; excess molar volume ([1]; 318.15 K, x1 = 0.2909): 7.96e-06 ± 1.1e-07 m3/mol; excess molar volume ([1]; 318.15 K, x1 = 0.3356): 8.41e-06 ± 1.1e-07 m3/mol; excess molar volume ([1]; 318.15 K, x1 = 0.4076): 8.97e-06 ± 1.2e-07 m3/mol; excess molar volume ([1]; 318.15 K, x1 = 0.4696): 9.17e-06 ± 1.2e-07 m3/mol; excess molar volume ([1]; 318.15 K, x1 = 0.4934): 9.19e-06 ± 1.2e-07 m3/mol; excess molar volume ([1]; 318.15 K, x1 = 0.5055): 9.2e-06 ± 1.2e-07 m3/mol; excess molar volume ([1]; 318.15 K, x1 = 0.5111): 9.19e-06 ± 1.2e-07 m3/mol; excess molar volume ([1]; 318.15 K, x1 = 0.5267): 9.13e-06 ± 1.2e-07 m3/mol; excess molar volume ([1]; 318.15 K, x1 = 0.536): 9.09e-06 ± 1.2e-07 m3/mol; excess molar volume ([1]; 318.15 K, x1 = 0.5637): 8.91e-06 ± 1.1e-07 m3/mol; excess molar volume ([1]; 318.15 K, x1 = 0.5859): 8.75e-06 ± 1.1e-07 m3/mol; excess molar volume ([1]; 318.15 K, x1 = 0.639): 8.21e-06 ± 1.1e-07 m3/mol; excess molar volume ([1]; 318.15 K, x1 = 0.6902): 7.6e-06 ± 1.1e-07 m3/mol; excess molar volume ([1]; 318.15 K, x1 = 0.7388): 6.82e-06 ± 1e-07 m3/mol; excess molar volume ([1]; 318.15 K, x1 = 0.7922): 5.79e-06 ± 9e-08 m3/mol; excess molar volume ([1]; 318.15 K, x1 = 0.8429): 4.71e-06 ± 9e-08 m3/mol; excess molar volume ([1]; 318.15 K, x1 = 0.8913): 3.45e-06 ± 8e-08 m3/mol; excess molar volume ([1]; 318.15 K, x1 = 0.9414): 2.04e-06 ± 8e-08 m3/mol; excess molar enthalpy ([2]; 299.15 K, x1 = 0.0689): 0.141 ± 0.00359 kcal/mol; excess molar enthalpy ([2]; 299.15 K, x1 = 0.1401): 0.254 ± 0.0043 kcal/mol; excess molar enthalpy ([2]; 299.15 K, x1 = 0.2146): 0.354 ± 0.00502 kcal/mol; excess molar enthalpy ([2]; 299.15 K, x1 = 0.2869): 0.43 ± 0.00574 kcal/mol; excess molar enthalpy ([2]; 299.15 K, x1 = 0.3549): 0.478 ± 0.00598 kcal/mol; excess molar enthalpy ([2]; 299.15 K, x1 = 0.4172): 0.506 ± 0.00621 kcal/mol; excess molar enthalpy ([2]; 299.15 K, x1 = 0.4738): 0.518 ± 0.00645 kcal/mol; excess molar enthalpy ([2]; 299.15 K, x1 = 0.5242): 0.517 ± 0.00645 kcal/mol; excess molar enthalpy ([2]; 299.15 K, x1 = 0.5696): 0.515 ± 0.00645 kcal/mol; excess molar enthalpy ([2]; 299.15 K, x1 = 0.571): 0.511 ± 0.00645 kcal/mol; excess molar enthalpy ([2]; 299.15 K, x1 = 0.6322): 0.489 ± 0.00621 kcal/mol; excess molar enthalpy ([2]; 299.15 K, x1 = 0.6996): 0.447 ± 0.00574 kcal/mol; excess molar enthalpy ([2]; 299.15 K, x1 = 0.7701): 0.384 ± 0.00526 kcal/mol; excess molar enthalpy ([2]; 299.15 K, x1 = 0.8357): 0.301 ± 0.00454 kcal/mol; excess molar enthalpy ([2]; 299.15 K, x1 = 0.8964): 0.213 ± 0.0043 kcal/mol; excess molar enthalpy ([2]; 299.15 K, x1 = 0.9485): 0.108 ± 0.0043 kcal/mol; excess molar enthalpy ([2]; 318.15 K, x1 = 0.0612): 0.124 ± 0.00335 kcal/mol; excess molar enthalpy ([2]; 318.15 K, x1 = 0.1263): 0.219 ± 0.00406 kcal/mol; excess molar enthalpy ([2]; 318.15 K, x1 = 0.2016): 0.326 ± 0.00478 kcal/mol; excess molar enthalpy ([2]; 318.15 K, x1 = 0.2725): 0.4 ± 0.00526 kcal/mol; excess molar enthalpy ([2]; 318.15 K, x1 = 0.3389): 0.443 ± 0.00574 kcal/mol; excess molar enthalpy ([2]; 318.15 K, x1 = 0.3986): 0.471 ± 0.00598 kcal/mol; excess molar enthalpy ([2]; 318.15 K, x1 = 0.4509): 0.485 ± 0.00598 kcal/mol; excess molar enthalpy ([2]; 318.15 K, x1 = 0.4911): 0.489 ± 0.00598 kcal/mol; excess molar enthalpy ([2]; 318.15 K, x1 = 0.511): 0.49 ± 0.00598 kcal/mol; excess molar enthalpy ([2]; 318.15 K, x1 = 0.5304): 0.49 ± 0.00598 kcal/mol; excess molar enthalpy ([2]; 318.15 K, x1 = 0.5696): 0.484 ± 0.00598 kcal/mol; excess molar enthalpy ([2]; 318.15 K, x1 = 0.6207): 0.475 ± 0.00598 kcal/mol; excess molar enthalpy ([2]; 318.15 K, x1 = 0.6806): 0.449 ± 0.00574 kcal/mol; excess molar enthalpy ([2]; 318.15 K, x1 = 0.7292): 0.417 ± 0.0055 kcal/mol; excess molar enthalpy ([2]; 318.15 K, x1 = 0.786): 0.37 ± 0.00502 kcal/mol; excess molar enthalpy ([2]; 318.15 K, x1 = 0.8292): 0.322 ± 0.00478 kcal/mol; excess molar enthalpy ([2]; 318.15 K, x1 = 0.8754): 0.261 ± 0.0043 kcal/mol; excess molar enthalpy ([2]; 318.15 K, x1 = 0.9191): 0.192 ± 0.00454 kcal/mol; excess molar enthalpy ([2]; 318.15 K, x1 = 0.9757): 0.0729 ± 0.0043 kcal/mol

— the NIST ThermoML archive (doi:10.1021/je0202073)
